The term IC50 denotes the point on the concentration scale where inhibition reaches its midpoint.

Consider nine compounds from patent publication US11083720B2, “Indazole inhibitors of fructokinase (KHK) and methods of use in treating KHK-mediated disorders or diseases” (REGENTS OF THE UNIVERSITY OF COLORADO, A BODY CORPORATE, priority 2017, dated 2021).

In the first assay the target is KHK-C (Homo sapiens (Human), UniProt P50053). Description: 3-step coupled-enzyme KHK assay (KHK, PK, LDH; NADH disappearance). Conditions: recombinant KHK-C, 1 mM fructose, A340 at 37° C. The assay is classed as biochemical. Here is the method: Specific high-throughput screening assays were developed for KHK-C and KHK-A using recombinant proteins. Purified human recombinant KHK-C and KHK-A were produced using the Bio-Rad Profinity eXact Fusion-Tag System and Profinia protein purification instrument. The assays consist of a 3-step, coupled-enzyme process involving fructokinase (KHK), pyruvate kinase (PK) and lactate dehydrogenase (LDH). ^1,2 The disappearance of NADH is measured kinetically by A340 at 37° C. The enzymatic assay was carried out in a total reaction volume of 200 ul containing 50 mM PIPES, 6 mM MgCl2, 100 mM KCl, 100 uM-5 mM ATP, 2 mM phosphoenolpyruvate, 0.3 mM NADH, 15 U of pyruvate kinase, 15 U of lactate dehydrogenase, and 75-1000 ng KHKC. 1 mM fructose was added to the reactions, except for the no fructose controls which utilized water. The high-throughput assay was used to identify inhibitors that have an IC50 value <5 μM for KHK-C.^5 The '559 pub also sets forth a KHK assay for testing inhibition activity of potential KHK inhibitors.
Sequence of KHK-C (P50053 whole entry, the tested form may be a part): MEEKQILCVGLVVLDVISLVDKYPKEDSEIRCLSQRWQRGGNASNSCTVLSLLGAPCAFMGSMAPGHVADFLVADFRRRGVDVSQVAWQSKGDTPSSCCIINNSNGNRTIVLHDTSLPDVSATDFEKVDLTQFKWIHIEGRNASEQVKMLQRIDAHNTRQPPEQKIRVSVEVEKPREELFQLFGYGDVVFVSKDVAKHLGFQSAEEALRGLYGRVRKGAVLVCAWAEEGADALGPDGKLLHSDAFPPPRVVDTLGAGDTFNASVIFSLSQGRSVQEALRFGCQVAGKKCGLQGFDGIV
On to `Cc1cccc(-n2ncc3ccc(C(=O)NC4CNC4)cc32)c1` [Compound C-33, N-(azetidin-3-yl)-1-(m-tolyl)-1H-indazole-6-carboxamide], for which the IC50 amounted to 2300 nM.

As for `O=C(NC1CNC1)c1ccc2cnn(-c3ccccc3)c2c1` [Compound C-34, N-(azetidin-3-yl)-1-phenyl-1H-indazole-6-carboxamide], the concentration for half-maximal inhibition (IC50) was 580 nM.

For the compound `Cc1cccc(-n2ncc3ccc(NC(=O)C4CCN4)cc32)c1` (stereo not shown) [Compound C-72], the IC50 is 1200 nM.

For the compound `Cc1cccc(-n2ncc3ccc(NC(=O)C4CNC4)cc32)c1` [Compound C-25, N-(1-(m-tolyl)-1H-indazol-6-yl)azetidine-3-carboxamide], the half-maximal inhibitory concentration (IC50) was found to be 510 nM.

`Nc1cc(-c2ccc3c(C4CC4)nn(-c4ccccc4)c3c2)ccn1` [Compound C-28, 4-(3-cyclopropyl-1-phenyl-1H-indazol-6-yl)pyridin-2-amine]: the IC50 stood at 700 nM.

`O=C(NC1CCNCC1)c1ccc2cnn(-c3ccccc3)c2c1` [Compound C-26, 1-phenyl-N-(piperidin-4-yl)-1H-indazole-6-carboxamide]: the IC50 was 2300 nM.

On to `Cc1cccc(-n2ncc3ccc(C(=O)NC4CCNCC4)cc32)c1` [Compound C-32, N-(piperidin-4-yl)-1-(m-tolyl)-1H-indazole-6-carboxamide], for which the half-maximal inhibitory concentration (IC50) was 790 nM.

On to `Cc1cccc(-n2ncc3ccc(-c4ccnc(N)c4)cc32)c1` [Compound C-5, 4-(1-(m-tolyl)-1H-indazol-6-yl)pyridin-2-amine], for which the IC50 is 280 nM.

Still in this assay, the particulars now being: recombinant KHK-C, 1 mM fructose, A340 at 37° C.; heading: IC50 Result.
As for `Nc1cc(-c2ccc3cnn(-c4ccccc4)c3c2)ccn1` [Compound C-1, 4-(1-phenyl-1H-indazol-6-yl)pyridin-2-amine], the half-maximal inhibitory concentration (IC50) was found to be 1170 nM.

The subject of the next assay is aldoB−/− KO mice. Description: Fructose-induced hypoglycemia in Aldolase B Knockout Mice. Conditions: 25 mg/kg IP 30 min before and repeated at oral fructose gavage (1.5 g/kg), glucose over 90 minutes. The assay is classed as in vivo. An excerpt:
Example 12 describes fructokinase inhibition results and fructose-induce hypoglycemia prevention results obtained from in vivo assay in Aldolase B Knockout Mice. Hereditary Fructose intolerance is a rare genetic disease due to deficiency of aldolase B that is associated with over activation of KHK-C. One of the key features in these individuals is the development of acute hypoglycemia following exposure to fructose ingestion due to rapid uptake of glucose into the liver with the formation of glycogen. Recently, an aldolase-B KO (aldoB^−/−) mouse that has the clinical features of HFI in humans was developed. These mice develop immediate dose-dependent hypoglycemia in response to fructose, but also develop fatty liver within days of low grade fructose feeding.
The procedure used in Example 12 consisted of first fasting animals for six hours, followed by the administration of fructose by oral gavage (45 mg fructose, equivalent to 1.5 g/kg body weight) or vehicle (water) to mice and following serum glucose levels over 90 minutes by measuring glucose with a glucometer from tail snip bleeds. With vehicle administration serum glucose stays normal, but when fructose is administered to aldolase B knockout mice a progressive fall in serum glucose occurs, as noted by the percent (%) of the baseline level. […]
As to `Cc1cccc(-n2ncc3ccc(NC(=O)C4CNC4)cc32)c1` [Compound C-25, N-(1-(m-tolyl)-1H-indazol-6-yl)azetidine-3-carboxamide], the “hypoglycemic response to fructose (serum glucose, % of baseline)” value is given as “hypoglycemic response was prevented”.
